Molecules are shown by their SMILES.

mitochondrial RNA-polymerase (POLRMT), sequence (Q8BKF1 42-1207): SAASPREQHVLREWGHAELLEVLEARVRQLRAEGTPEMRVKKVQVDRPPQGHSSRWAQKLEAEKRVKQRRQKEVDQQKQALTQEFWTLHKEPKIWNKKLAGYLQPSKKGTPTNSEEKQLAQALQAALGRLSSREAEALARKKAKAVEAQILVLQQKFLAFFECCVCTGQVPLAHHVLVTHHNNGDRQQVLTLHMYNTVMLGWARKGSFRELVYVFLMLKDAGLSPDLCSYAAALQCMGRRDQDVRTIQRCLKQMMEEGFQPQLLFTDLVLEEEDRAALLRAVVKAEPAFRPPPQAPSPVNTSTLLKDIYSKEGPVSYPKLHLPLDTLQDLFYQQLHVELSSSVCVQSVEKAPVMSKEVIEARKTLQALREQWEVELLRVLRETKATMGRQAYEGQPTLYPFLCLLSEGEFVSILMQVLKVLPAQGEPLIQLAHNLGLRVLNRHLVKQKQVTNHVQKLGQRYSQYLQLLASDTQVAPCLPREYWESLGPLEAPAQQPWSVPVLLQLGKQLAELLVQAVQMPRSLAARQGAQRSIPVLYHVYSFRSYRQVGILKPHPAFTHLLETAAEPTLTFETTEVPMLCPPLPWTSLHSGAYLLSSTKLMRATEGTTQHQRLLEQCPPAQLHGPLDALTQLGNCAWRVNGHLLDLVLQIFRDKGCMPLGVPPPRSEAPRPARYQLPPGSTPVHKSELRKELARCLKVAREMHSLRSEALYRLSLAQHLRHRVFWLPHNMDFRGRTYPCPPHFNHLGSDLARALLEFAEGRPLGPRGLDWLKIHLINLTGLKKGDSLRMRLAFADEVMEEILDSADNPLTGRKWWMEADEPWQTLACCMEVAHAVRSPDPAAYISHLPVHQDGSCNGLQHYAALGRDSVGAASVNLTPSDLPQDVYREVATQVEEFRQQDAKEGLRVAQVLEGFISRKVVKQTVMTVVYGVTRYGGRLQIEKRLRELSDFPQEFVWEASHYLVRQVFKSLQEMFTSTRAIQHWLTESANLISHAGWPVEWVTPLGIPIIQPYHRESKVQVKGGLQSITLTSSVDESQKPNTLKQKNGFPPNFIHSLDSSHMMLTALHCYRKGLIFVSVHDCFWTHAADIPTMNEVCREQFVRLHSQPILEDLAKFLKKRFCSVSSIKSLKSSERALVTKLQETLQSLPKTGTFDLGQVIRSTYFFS

This experiment concerns the target mitochondrial RNA-polymerase (POLRMT) (Mus musculus, UniProt Q8BKF1). The experiment is described as follows: Homogeneous TR-FRET assay for mitochondrial transcription activity. Type of experiment: biochemical. The conditions noted are these: homogeneous TR-FRET assay according to Example 4; read-out: mitochondrial transcription activity (IC-50). The source says: The TR-FRET assay was basically conducted as described in WO 2016/193231A1, especially as described in example 1 (hereby incorporated by reference). With respect to the background of the mitochondrial transcription it is referred to Falkenberg et al. (2002) and Posse et al. (Posse et al. 2015). The method monitors the activity of mitochondrial RNA-polymerase via detection of the formation of its product, a 407 bp long RNA sequence. Detection of the product is facilitated by hybridization of two DNA-oligonucleotide probes to specific and adjacent sequences within the RNA product sequence. Upon annealing of the probes, two fluorophores that are coupled directly to an acceptor nucleotide probe (ATT0647, 5′) or introduced via a coupled streptavidin interacting with a biotinylated donor nucleotide probe on the other side (Europium cryptate, 3) are brought into sufficient proximity to serve as a fluorescence-donor-acceptor pair as generally described in Walters and Namchuk (2003). Thus, a FRET signal at 665 nm is generated upon excitation at 340 nm.
Briefly, the protocol described here was applied for screening and activity determination in a low-volume 384-well microtiter plate with non-binding surface. For high-throughput application in the 1536-well microtiter plate format, volumes of the reagent mixes were adjusted, maintaining the volumetric ratio. Proteins POLRMT (NM_172551.3), TFAM (NM_009360.4) and TFB2M (NM_008249.4) were diluted from their stocks to working concentrations of 150 nM, 1.8 μM and 330 nM respectively, in a dilution buffer containing 100 mM Tris-HCl pH 8.0, 200 mM NaCl, 10% (v/v) glycerole, 2 mM glutathione (GSH), 0.5 mM EDTA and 0.1 mg/mL BSA. Protein dilutions and template DNA, comprising a pUC18 plasmid encoding the mitochondrial light strand promoter, restriction linearized proximal to the promoter 3′-end (pUC-LSP), were mixed at the twofold final assay-concentration in a reaction buffer, containing 10 mM Tris-HCl pH 7.5, 10 mM MgCl2, 40 mM NaCl, 2 mM GSH, 0.01% (w/v) Tween-20 and 0.1 mg/mL BSA.
5 μL of this mix were dispensed, depending on the chosen microtiter plate format, using multi-channel pipettes or a Multidrop® dispenser (Thermo Fisher Scientific, Waltham Mass.) into the wells of a microtiter plate and incubated at room temperature (RT) for 10 min. Chemical compounds under scrutiny in the assay were applied using contact-free acoustic droplet-dispensing (Echo520® Labcyte Inc., Sunnyvale Calif.) from 10 mM compound stocks in 100% DMSO, to a final concentration of 10 μM or in serial dilution series of the required concentration range. Equal amounts of DMSO without any compound were added to positive control samples, followed by an incubation step at RT for 10 min.
The enzymatic reaction was started by the addition of 5 μL of a mix of dNTPs in reaction buffer to a final concentration of 500 μM each. No nucleotide mix was added to negative control samples. The content of the wells was mixed using a VarioTeleshaker™ (Thermo Fisher Scientific, Waltham Mass.) at 1500 rpm for 45 sec after which the microtiter plate was centrifuged at 500×g for 1 min. The samples were incubated for 2 h at RT with humidity control to avoid evaporation. The detection reagents were prepared in a buffer that was composed, such that the enzymatic reaction was terminated due to chelating of Mg-ions and increased ionic strength, containing 50 mM Tris-HCl pH 7.5, 700 mM NaCl, 20 mM EDTA, and 0.01% (w/v) Tween-20. Importantly Eu-cryptate-coupled streptavidin had to be preincubated with a 100-fold molar excess of a random sequence oligonucleotide for 10 min at RT in the dark to block unspecific binding of single stranded RNA to the protein. Subsequently, the blocked streptavidin(-Eu) was mixed with the DNA-probes on ice and kept away from light until use. […]
(TR-FRET usually uses a lanthanide donor and a delayed reading to cut background.)
With `CC(Oc1ccc2c(-c3ccccc3)cc(=O)oc2c1)C(=O)Nc1ccncc1` (centres unmarked) [Compound 61, 2-(2-oxo-4-phenyl-chromen-7-yl)oxy-N-(4-pyridyl)propanamide], the IC50 is 1000 to 10000 nM.

As for `CNC(=O)C1CCCN(C(=O)C(C)Oc2ccc3c(-c4ccccc4)cc(=O)oc3c2)C1` (centres unmarked) [Compound 62, N-methyl-1-[2-(2-oxo-4-phenyl-chromen-7-yl)oxypropanoyl]piperidine-3-carboxamide], the IC50 was in the range of 1000 to 10000 nM.

For the molecule `CCOC(=O)C(C)Oc1ccc2c(-c3ccc(Br)cc3)cc(=O)oc2c1` (centres unmarked) [Compound 41, ethyl 2-[4-(4-bromophenyl)-2-oxo-chromen-7-yl]oxypropanoate], the IC50 is 100 to 1000 nM.

For the molecule `O=C(O)C1CCCN(C(=O)COc2cc3oc(=O)cc(-c4ccccc4)c3cc2Cl)C1` (centres unmarked) [Compound 85, 1-[2-(6-chloro-2-oxo-4-phenyl-chromen-7-yl)oxyacetyl]piperidine-3-carboxylic acid], the IC50 was 1000 to 10000 nM.

As for `CC(Oc1ccc2c(-c3ccccc3)cc(=O)oc2c1)C(=O)NCC(O)c1ccccc1` (centres unmarked) [Compound 29, N-(2-hydroxy-2-phenyl-ethyl)-2-(2-oxo-4-phenyl-chromen-7-yl)oxy-propanamide], the IC50 fell in the range of 1000 to 10000 nM.

With `CCOC(=O)C(C)Oc1ccc2c(-c3ccc(F)cc3)cc(=O)oc2c1` (centres unmarked) [Compound 8, ethyl 2-[4-(4-fluorophenyl)-2-oxo-chromen-7-yl]oxypropanoate], the IC50 was 100 to 1000 nM.

For the molecule `CC(Oc1ccc2c(-c3ccccc3)cc(=O)oc2c1)C(=O)N1CCCCC1` (centres unmarked) [Compound 39, 7-[1-methyl-2-oxo-2-(1-piperidyl)ethoxy]-4-phenyl-chromen-2-one], the IC50 fell in the range of 100 to 1000 nM.

Turning to `O=C(COc1cc2oc(=O)cc(-c3ccccc3)c2cc1Cl)NCCN1CCOCC1` [Compound 83, 2-(6-chloro-2-oxo-4-phenyl-chromen-7-yl)oxy-N-(2-morpholinoethyl)acetamide], the IC50 was in the range of 1000 to 10000 nM.

Consider `O=C(COc1ccc2c(-c3ccccc3)cc(=O)oc2c1)Nc1ccccn1` [Compound 22, 2-(2-oxo-4-phenyl-chromen-7-yl)oxy-N-(2-pyridyl)acetamide], for which the IC50 fell in the range of 100 to 1000 nM.

As for `CC(Oc1cc2oc(=O)cc(-c3ccccc3)c2cc1Cl)C(=O)NCc1ccco1` (centres unmarked) [Compound 42, 2-(6-chloro-2-oxo-4-phenyl-chromen-7-yl)oxy-N-(2-furylmethyl)propanamide], the IC50 was in the range of 100 to 1000 nM.

With `O=C(COc1cc2oc(=O)cc(-c3ccccc3)c2cc1Cl)NCC(O)c1ccccc1` (centres unmarked) [Compound 90, 2-(6-chloro-2-oxo-4-phenyl-chromen-7-yl)oxy-N-(2-hydroxy-2-phenyl-ethyl)acetamide], the IC50 lay in the range of 1000 to 10000 nM.

Consider `O=C(COc1cc2oc(=O)cc(-c3ccccc3)c2cc1Cl)Nc1ccc(CCO)cc1` [Compound 57, 2-(6-chloro-2-oxo-4-phenyl-chromen-7-yl)oxy-N-[4-(2-hydroxyethyl)phenyl]acetamide], for which the IC50 is 100 to 1000 nM.

As to `Cc1c(OCC(=O)OC(C)(C)C)ccc2c(-c3ccccc3)cc(=O)oc12` [Compound 94, tert-butyl 2-(8-methyl-2-oxo-4-phenyl-chromen-7-yl)oxyacetate], the IC50 lay within 1000 to 10000 nM.

`CCOC(=O)C(C)Oc1cc2oc(=O)cc(-c3ccccc3)c2cc1Cl` (centres unmarked) [Compound 50, ethyl 2-(6-chloro-2-oxo-4-phenyl-chromen-7-yl)oxypropanoate]: the IC50 lay within 100 to 1000 nM.

As for `NC(=O)COc1ccc2c(-c3ccccc3)cc(=O)oc2c1` [Compound 75, 2-(2-oxo-4-phenyl-chromen-7-yl)oxyacetamide], the IC50 fell in the range of 1000 to 10000 nM.

For the molecule `COC(=O)C1CCCN(C(=O)C(C)Oc2cc3oc(=O)cc(-c4ccccc4)c3cc2Cl)C1` (centres unmarked) [Compound 10, methyl 1-[2-(6-chloro-2-oxo-4-phenyl-chromen-7-yl)oxypropanoyl]piperidine-3-carboxylate], the IC50 lay in the range of 100 to 1000 nM.

For the molecule `CCOC(=O)C1CCCN(C(=O)COc2ccc3c(-c4ccccc4)cc(=O)oc3c2)C1` (centres unmarked) [Compound 43, ethyl 1-[2-(2-oxo-4-phenyl-chromen-7-yl)oxyacetyl]piperidine-3-carboxylate], the IC50 lay within 1000 to 10000 nM.

With `CCOC(=O)COc1ccc2c(-c3ccccc3)cc(=O)oc2c1` [Compound 81, ethyl 2-(2-oxo-4-phenyl-chromen-7-yl)oxyacetate], the IC50 lay in the range of 1000 to 10000 nM.

As to `O=C(COc1cc2oc(=O)cc(-c3ccccc3)c2cc1Cl)NC[C@H]1CC[C@H](C(=O)O)CC1` [Compound 98, 4-[[[2-(6-chloro-2-oxo-4-phenyl-chromen-7-yl)oxyacetyl]amino]methyl]cyclohexanecarboxylic acid], the IC50 was 1000 to 10000 nM.

On to `CCCc1cc2c(-c3ccccc3)cc(=O)oc2cc1OC(C)C(=O)O` (centres unmarked) [Compound 97, 2-(2-oxo-4-phenyl-6-propyl-chromen-7-yl)oxypropanoic acid], for which the IC50 is 1000 to 10000 nM.

For `CC(Oc1ccc2c(-c3ccccc3)cc(=O)oc2c1)C(=O)N(C)c1ccc(CCO)cc1` (centres unmarked) [Compound 18, N-[4-(2-hydroxyethyl)phenyl]-N-methyl-2-(2-oxo-4-phenyl-chromen-7-yl)oxy-propanamide], the IC50 is 100 to 1000 nM.

`COc1ccc(NC(=O)C(C)Oc2ccc3c(-c4ccccc4)cc(=O)oc3c2)cc1` (centres unmarked) [Compound 72, N-(4-methoxyphenyl)-2-(2-oxo-4-phenyl-chromen-7-yl)oxy-propanamide]: the IC50 is 1000 to 10000 nM.

With `CCOC(=O)C(CC)Oc1ccc2c(-c3ccccc3)cc(=O)oc2c1` (centres unmarked) [Compound 71, ethyl 2-(2-oxo-4-phenyl-chromen-7-yl)oxybutanoate], the IC50 was 1000 to 10000 nM.

For the molecule `CCCOC(=O)COc1ccc2c(-c3ccccc3)cc(=O)oc2c1` [Compound 74, propyl 2-(2-oxo-4-phenyl-chromen-7-yl)oxyacetate], the IC50 is 1000 to 10000 nM.

Take `COC(=O)C(C)Oc1ccc2c(-c3ccccc3)cc(=O)oc2c1` (centres unmarked) [Compound 56, methyl 2-(2-oxo-4-phenyl-chromen-7-yl)oxypropanoate]: the IC50 fell in the range of 100 to 1000 nM.

Regarding `CC(Oc1cc2oc(=O)cc(-c3ccccc3)c2cc1Cl)C(=O)Nc1ccc(CCO)cc1` (centres unmarked) [Compound 17, 2-(6-chloro-2-oxo-4-phenyl-chromen-7-yl)oxy-N-[4-(2-hydroxyethyl)phenyl]propanamide], the IC50 was 100 to 1000 nM.

Consider `O=C(COc1cc2oc(=O)cc(-c3ccccc3)c2cc1Cl)NC1CC1` [Compound 46, 2-(6-chloro-2-oxo-4-phenyl-chromen-7-yl)oxy-N-cyclopropyl-acetamide], for which the IC50 was in the range of 100 to 1000 nM.

For the molecule `CC(Oc1cc2oc(=O)cc(-c3ccccc3)c2cc1Cl)C(=O)Nc1ccc(CCCO)cc1` (centres unmarked) [Compound 28, 2-(6-chloro-2-oxo-4-phenyl-chromen-7-yl)oxy-N-[4-(3-hydroxypropyl)phenyl]propanamide], the IC50 lay in the range of 100 to 1000 nM.

Take `CC(Oc1ccc2c(-c3ccccc3)cc(=O)oc2c1)C(=O)Nc1ccccn1` (centres unmarked) [Compound 6, 2-(2-oxo-4-phenyl-chromen-7-yl)oxy-N-(2-pyridyl)propanamide]: the IC50 lay within 100 to 1000 nM.

`COC(=O)[C@@H]1CCCN(C(=O)C(C)Oc2ccc3c(-c4ccccc4)cc(=O)oc3c2)C1` (stereo partly drawn) [Compound 38, methyl (3R)-1-[2-(2-oxo-4-phenyl-chromen-7-yl)oxypropanoyl]piperidine-3-carboxylate]: the IC50 was 1000 to 10000 nM.

In the case of `CCOC(=O)C(C)Oc1ccc2c(-c3ccc(C)cc3)cc(=O)oc2c1` (centres unmarked) [Compound 9, ethyl 2-[2-oxo-4-(p-tolyl)chromen-7-yl]oxypropanoate], the IC50 fell in the range of 100 to 1000 nM.

With `CC(C)(C)OC(=O)COc1ccc2c(-c3ccccc3)cc(=O)oc2c1` [Compound 44, tert-butyl 2-(2-oxo-4-phenyl-chromen-7-yl)oxyacetate], the IC50 lay within 100 to 1000 nM.

(Values after patent US10703735B2, “4-phenyl-coumarin derivatives, processes for their preparation and uses thereof for the treatment of cancer” (Lead Discovery Center GmbH, priority 2018, dated 2020).)
